Results published in patent publication US10477865B2, “Fungicidal compounds and methods of their use” (Auckland UniServices Limited, priority 2009, dated 2019).

What was measured:
[1] = Stability tests (absorbance at 428 nm in different testing solutions); assay type: physicochemical
Method: Stability was determined by re-suspending between 0.3 to 0.5 mg/mL of purified pigmented compound of Formula (IV) in different testing solutions according to Table 1, and measuring the absorbance at 428 nm every 24 hours for fifteen days. The test samples were kept in glass vials under constant incandescent light (except for the temperature stability test).

[2] = Solubility; assay type: physicochemical; conditions: in water and polar organic solvents such as methanol, and ethanol
[3] = FRAP (ferric reducing antioxidant power) assay; conditions: compared with ascorbic acid; data not shown
[4] = Phosphomolybdenum antioxidant assay; conditions: compared with ascorbic acid; data not shown
[5] = Radical scavenging ability; conditions: compared with ascorbic acid; data not shown
[6] = system: B. cinera ICMP16621; assay: Agar diffusion assay, inhibition of mycelial growth; assay type: cell-based, Botrytis cinera; conditions: HPLC purified; YPD agar, 25° C., 5 days; data not shown
[7] = system: S. sclerotiorum ICMP13844; assay: as above; assay type: cell-based, Sclerotinia sclerotiorum; conditions: HPLC purified; YPD agar, 25° C., 5 days; data not shown
[8] = system: A. supraseptata SVB-F2; assay: as above; assay type: cell-based, Apiognomonia supraseptata; conditions: HPLC purified; YPD agar, 25° C., 5 days; data not shown
[9] = system: Candida albicans SC5614; assay: Agar diffusion assay, antimicrobial activity; assay type: cell-based; conditions: data not shown
[10] = system: Candida utilis 02/D00981; assay: Agar diffusion assay, antimicrobial activity; assay type: cell-based; conditions: data not shown
[11] = system: Saccharomyces cerevisiae BM45; assay: Agar diffusion assay, antimicrobial activity; assay type: cell-based; conditions: data not shown
[12] = system: Staphylococcus epidermis SVB-B12; assay: Agar diffusion assay, antimicrobial activity; assay type: cell-based; conditions: data not shown
[13] = system: Escherichia coli SVB-B11; assay: Agar diffusion assay, antimicrobial activity; assay type: cell-based; conditions: data not shown
[14] = system: Pseudomonas aeruginosa SVB-B10; assay type: cell-based; conditions: agar diffusion; data not shown
[15] = system: B. cinera ICMP16621; assay: Inhibition of spore germination; assay type: cell-based, Botrytis cinera
[16] = system: S. sclerotiorum ICMP13844; assay: Inhibition of spore germination; assay type: cell-based, Sclerotinia sclerotiorum
[17] = system: A. alternata ICMP1099-96; assay: Inhibition of spore germination; assay type: cell-based, Alternaria alternata
[18] = system: P. viticola ICMP5537; assay: Inhibition of spore germination; assay type: cell-based, Phomopsis viticola
[19] = system: R. solani ICMP11620; assay type: cell-based, Rhizoctonia solani
[20] = system: M. grisea ICMP14481; assay type: cell-based, Magnaporthe grisea
[21] = system: S. cepivorum ICMP10916-91; assay: Inhibition of spore germination; assay type: cell-based, Sclerotium cepivorum
[22] = system: V. inaequalis ICMP4095-96; assay: Inhibition of spore germination; assay type: cell-based, Venturia inaequalis
[23] = system: M. graminicola ICMP12504-95; assay type: cell-based, Mycosphaerella graminicola
[24] = Stability tests (absorbance at 428 nm in different testing solutions); assay type: physicochemical; conditions: after 10 days
[25] = Stability to common acids: Acetic acid
[26] = Stability to common acids: Malic acid
[27] = Stability to common alkalis: NaHCO3 10% w/w
[28] = Stability to microwave radiation: 5 min, domestic microwave (1000 W)
[29] = Stability to presence of sugars: Sucrose 10% w/w
[30] = Stability to temperature: 4° C. in methanol
[31] = Stability to temperature: 4° C. in water
[32] = Stability to temperature: 60° C. in methanol
[33] = Stability to temperature: 60° C. in water
[34] = Stability to temperature: 100° C. in water
[35] = Stability to temperature: −20° C. in methanol
[36] = Stability to temperature: −20° C. in water
[37] = all three concentrations tested: 2.7, 1.3 and 0.7 mg·mL-1

For `CCC(C)CC(C)/C=C(/C=C(C)/C=C/C=C/C=C/C=C/C=C/C=C/C1=C(C(=O)O)C2OOC(CO)C(O)C(O1)C2O)C(=O)O` (single isomer, unassigned) [Compound 1, Epicoccaene], the “Resistance to temperature and microwave radiation” value [1] was “resistant”, the “Initial absorbance (428 nm)” value [1, 25] was 1.61 and the “Initial absorbance (428 nm)” value ([1]; Stability to common acids: Citric acid) was 1.53. The “Final absorbance (428 nm)” value ([1]; Stability to common acids: Citric acid, after 10 days) was 0.51, the “Initial absorbance (428 nm)” value ([1]; Stability to common acids: Lactic acid) was 1.52 and the “Final absorbance (428 nm)” value ([1]; Stability to common acids: Lactic acid, after 10 days) was 0.68. The “Initial absorbance (428 nm)” value [1, 26] was 1.53, the “Initial absorbance (428 nm)” value ([1]; Stability to common alkalis: Na2CO3 10% w/w) was 2.13 and the “Final absorbance (428 nm)” value ([1]; Stability to common alkalis: Na2CO3 10% w/w, after 10 days) was 2.12. For the same molecule, the “Initial absorbance (428 nm)” value [1, 27] was 2.08, the “Initial absorbance (428 nm)” value ([1]; Stability to common alkalis: NaOH 10% w/w) was 2.05 and the “Final absorbance (428 nm)” value ([1]; Stability to common alkalis: NaOH 10% w/w, after 10 days) was 2.04. The “Initial absorbance (428 nm)” value ([1]; Stability to light: In ethanol 5% v/v) was 2.04, the “Final absorbance (428 nm)” value ([1]; Stability to light: In ethanol 5% v/v, after 10 days) was 2.04 and the “Initial absorbance (428 nm)” value ([1]; Stability to light: In methanol) was 2.04. The “Final absorbance (428 nm)” value ([1]; Stability to light: In methanol, after 10 days) was 2.04, the “Initial absorbance (428 nm)” value ([1]; Stability to light: In water) was 2.05 and the “Final absorbance (428 nm)” value ([1]; Stability to light: In water, after 10 days) was 1.82. The “Final absorbance (428 nm)” value [1, 28] was 2.04, the “Initial absorbance (428 nm)” value [1, 28] was 2.05 and the “Initial absorbance (428 nm)” value ([1]; Stability to presence of sugars: Dextrose 10% w/w) was 2.08. For the same molecule, the “Final absorbance (428 nm)” value ([1]; Stability to presence of sugars: Dextrose 10% w/w, after 10 days) was 2.08, the “Initial absorbance (428 nm)” value ([1]; Stability to presence of sugars: Fructose 10% w/w) was 2.02 and the “Final absorbance (428 nm)” value ([1]; Stability to presence of sugars: Fructose 10% w/w, after 10 days) was 2.03. The “Initial absorbance (428 nm)” value [1, 29] was 2.08, the “Final absorbance (428 nm)” value [1, 30] was 2.03 and the “Initial absorbance (428 nm)” value [1, 30] was 2.05. For the same molecule, the “Final absorbance (428 nm)” value [1, 31] was 2.06, the “Initial absorbance (428 nm)” value [1, 31] was 2.08 and the “Final absorbance (428 nm)” value [1, 32] was 2.04. For the same molecule, the “Initial absorbance (428 nm)” value [1, 32] was 2.05, the “Final absorbance (428 nm)” value [1, 33] was 2.06 and the “Initial absorbance (428 nm)” value [1, 33] was 2.08. For the same molecule, the “Final absorbance (428 nm)” value [1, 34] was 2.07, the “Initial absorbance (428 nm)” value [1, 34] was 2.08 and the “Final absorbance (428 nm)” value [1, 35] was 2.06. The “Initial absorbance (428 nm)” value [1, 35] was 2.05, the “Final absorbance (428 nm)” value [1, 36] was 2.07 and the “Initial absorbance (428 nm)” value [1, 36] was 2.08. For the same molecule, the “Stability under acidic conditions” value ([1]; acidic conditions, colour changes from bright yellow to pale orange) was “unstable”, the Light sensitivity ([1]; dissolved in water at neutral pH) was “moderate light sensitivity” and the Resistance to light ([1]; in water at pH 8.0 or higher, in methanol or in sugar solutions (10% w/w)) was “resistance to light increased”. For the same molecule, the “Degradation in solution of organic acids” value ([1]; organic acids (10% w/w)) was “pronounced degradation”, the “Final absorbance (428 nm)” value ([1]; pH stability, pH 3, after 10 days, constant incandescent light) was 1.45 and the “Initial absorbance (428 nm)” value ([1]; pH stability, pH 3, constant incandescent light) was 1.46. The “Final absorbance (428 nm)” value ([1]; pH stability, pH 5, after 10 days, constant incandescent light) was 1.67, the “Initial absorbance (428 nm)” value ([1]; pH stability, pH 5, constant incandescent light) was 1.67 and the “Final absorbance (428 nm)” value ([1]; pH stability, pH 7, after 10 days, constant incandescent light) was 2.05. For the same molecule, the “Initial absorbance (428 nm)” value ([1]; pH stability, pH 7, constant incandescent light) was 2.05, the “Final absorbance (428 nm)” value ([1]; pH stability, pH 8, after 10 days, constant incandescent light) was 2.08 and the “Initial absorbance (428 nm)” value ([1]; pH stability, pH 8, constant incandescent light) was 2.09. The “Final absorbance (428 nm)” value ([1]; pH stability, pH 10, after 10 days, constant incandescent light) was 2.09, the “Initial absorbance (428 nm)” value ([1]; pH stability, pH 10, constant incandescent light) was 2.09 and the Solubility [2] was “readily soluble”. For the same molecule, the “Antioxidant power by FRAP” value [3] was “comparable to those of ascorbic acid”, the “Antioxidant power by phosphomolybdenum assay” value [4] was “comparable to those of ascorbic acid” and the Radical scavenging ability [5] was “comparable to those of ascorbic acid”. For the same molecule, the “Activity against mycelial growth (zone of inhibition)” value (shortened to “Activity … (zone of inhibition)”) [6] was “strong activity”, the “Activity … (zone of inhibition)” value [7] was “strong activity” and the “Activity … (zone of inhibition)” value [8] was “strong activity”. The Antimicrobial activity [9] was “No antimicrobial activity”, the Antimicrobial activity [10] was “No antimicrobial activity” and the Antimicrobial activity [11] was “No antimicrobial activity”. For the same molecule, the Antimicrobial activity [12] was “No antimicrobial activity”, the Antimicrobial activity [13] was “No antimicrobial activity” and the Antimicrobial activity [14] was “No antimicrobial activity”. The “Inhibition of spore germination” value [15, 37] was “completely inhibit”, the “Inhibition of spore germination” value ([15]; incubation in rich culture medium for 10 days, data not shown) was “completely inhibit” and the “minimal inhibition dose (MID)” value ([15]; spore germination) was “below 0.7 mg/mL”. The “Inhibition of spore germination” value [16, 37] was “completely inhibit”, the “minimal inhibition dose (MID)” value ([16]; spore germination) was “below 0.7 mg/mL” and the “Inhibition of spore germination” value [17, 37] was “completely inhibit”. For the same molecule, the “minimal inhibition dose (MID)” value ([17]; spore germination) was “below 0.7 mg/mL”, the “Inhibition of spore germination” value [18, 37] was “completely inhibit” and the “minimal inhibition dose (MID)” value ([18]; spore germination) was “below 0.7 mg/mL”. The “minimal inhibition dose (MID)” value [19] was “below 0.7 mg/mL”, the “Inhibition of spore germination” value [19, 37] was “completely inhibit” and the “Inhibition of spore germination” value [20, 37] was “completely inhibit”. For the same molecule, the “minimal inhibition dose (MID)” value ([20]; spore germination) was “below 0.7 mg/mL”, the “Inhibition of spore germination” value [21, 37] was “completely inhibit” and the “minimal inhibition dose (MID)” value ([21]; spore germination) was “below 0.7 mg/mL”. The “Inhibition of spore germination” value [22, 37] was “completely inhibit”, the “minimal inhibition dose (MID)” value ([22]; spore germination) was “below 0.7 mg/mL” and the “Inhibition of spore germination” value [23] was “resistant”. For the same molecule, the “Final absorbance (428 nm)” value [24, 25] was 0.66, the “Final absorbance (428 nm)” value [24, 26] was 0.38 and the “Final absorbance (428 nm)” value [24, 27] was 2.08. For the same molecule, the “Final absorbance (428 nm)” value [24, 29] was 2.07.
